Data published in ChEMBL document CHEMBL1201862, “PubChem BioAssay data set” (2004).
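Tested at 5 concentrations; 48 h exposure; 96-well plates; endpoints linearly interpolated, else capped at highest concentration. GI50 = concentration required for 50% inhibition of growth.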 Active and inactive are the calls of the source. Cut-off read from the data, not from the text of the source: active = GI50 up to about 1.1 µM and inactive = higher.

Key:
Test in all cases: NCI tumour cell line growth inhibition, 48 h
ACHN = system: ACHN
CAKI-1 = system: CAKI-1
CCRF-CEM = system: CCRF-CEM
HCC 2998 = system: HCC 2998
KM12 = system: KM12
LOX IMVI = system: LOX IMVI
MOLT-4 = system: MOLT-4
NCI-H23 = system: NCI-H23
NCI-H460 = system: NCI-H460
OVCAR-3 = system: OVCAR-3
OVCAR-4 = system: OVCAR-4
OVCAR-8 = system: OVCAR-8
TK-10 = system: TK-10
U-251 = system: U-251
UACC-62 = system: UACC-62
UO-31 = system: UO-31
RXF 393 = system: RXF 393

Measured: GI50

COc1ccccc1NC(=O)C1=C(C)NC(C)=C(C(=O)Nc2ccccc2OC)C1c1ccccc1Cl
inactive: ACHN 55.7 µM | CAKI-1 > 100 µM | CCRF-CEM 38.4 µM | HCC 2998 > 100 µM | KM12 61 µM | LOX IMVI > 100 µM | MOLT-4 27.2 µM | NCI-H23 > 100 µM | NCI-H460 59.3 µM | OVCAR-3 > 100 µM | OVCAR-4 > 100 µM | OVCAR-8 > 100 µM | TK-10 > 100 µM | U-251 78.3 µM | UACC-62 > 100 µM | UO-31 28.5 µM

CC(C)(C)C1C=C(Sc2ccccc2)C(=O)O1 (stereo unspecified)
inactive: ACHN 32.1 µM | CAKI-1 45.6 µM | CCRF-CEM 37.4 µM | HCC 2998 58.9 µM | KM12 40.6 µM | LOX IMVI 37.6 µM | MOLT-4 30.3 µM | NCI-H23 33.5 µM | NCI-H460 40.4 µM | OVCAR-3 42.8 µM | OVCAR-4 63.8 µM | OVCAR-8 37.3 µM | TK-10 60.5 µM | U-251 54 µM | UACC-62 36.7 µM | UO-31 33.7 µM

COc1ccc(N2C(=O)/C(=C(\C)c3cc4ccccc4oc3=O)N=C2c2cc([N+](=O)[O-])ccc2Cl)cc1
inactive: ACHN 32.1 µM | CAKI-1 29.6 µM | CCRF-CEM 32.5 µM | HCC 2998 43.5 µM | KM12 22.3 µM | LOX IMVI 34.5 µM | MOLT-4 29.7 µM | NCI-H23 11.2 µM | NCI-H460 41.9 µM | OVCAR-3 73.8 µM | OVCAR-4 38.4 µM | OVCAR-8 > 100 µM | U-251 48.1 µM | UACC-62 26.6 µM | UO-31 46.9 µM

C/C(=N/NS(=O)(=O)c1c(C)cc(C)cc1C)c1cccc[n+]1[O-]
inactive: ACHN > 100 µM | CAKI-1 > 100 µM | CCRF-CEM > 100 µM | HCC 2998 > 100 µM | KM12 > 100 µM | MOLT-4 > 100 µM | NCI-H23 > 100 µM | NCI-H460 > 100 µM | OVCAR-3 > 100 µM | OVCAR-4 > 100 µM | OVCAR-8 > 100 µM | TK-10 > 100 µM | U-251 > 100 µM | UACC-62 > 100 µM | UO-31 > 100 µM

COc1ccc(/N=N/C(C(=O)c2ccccc2)C(=O)c2ccccc2)cc1
inactive: ACHN 24.7 µM | CAKI-1 32.5 µM | CCRF-CEM 8 µM | HCC 2998 44.7 µM | KM12 27 µM | LOX IMVI 17.8 µM | MOLT-4 14.7 µM | NCI-H23 18.3 µM | NCI-H460 18.6 µM | OVCAR-3 17.2 µM | OVCAR-4 30.8 µM | OVCAR-8 22.4 µM | TK-10 52 µM | U-251 15.7 µM | UACC-62 16 µM | UO-31 16.9 µM

CN1COCN/C1=N/C#N
inactive: ACHN > 100 µM | CAKI-1 > 100 µM | CCRF-CEM > 100 µM | HCC 2998 > 100 µM | KM12 > 100 µM | LOX IMVI > 100 µM | MOLT-4 > 100 µM | NCI-H460 > 100 µM | OVCAR-3 36.1 µM | OVCAR-4 > 100 µM | OVCAR-8 > 10 µM | UACC-62 > 100 µM | UO-31 > 100 µM

O=C(O)C12CC3CC(CC(F)(C3)C1)C2
inactive: ACHN > 100 µM | CCRF-CEM > 100 µM | HCC 2998 > 100 µM | KM12 > 100 µM | LOX IMVI > 100 µM | MOLT-4 > 100 µM | NCI-H23 > 100 µM | NCI-H460 > 100 µM | OVCAR-3 > 100 µM | OVCAR-8 > 100 µM | RXF 393 > 100 µM | TK-10 > 100 µM | U-251 > 100 µM | UACC-62 > 100 µM | UO-31 > 100 µM
